Source: ChEMBL document CHEMBL5550126, “Identification of naphthalimide-derivatives as novel PBD-targeted polo-like kinase 1 inhibitors with efficacy in drug-resistant lung cancer cells” (Eur J Med Chem, 2024)

Legend:
[1] = target: Serine/threonine-protein kinase PLK1 (Homo sapiens, UniProt P53350); assay: Binding affinity to recombinant PLK1 (unknown origin) assessed as dissociation constant by SPR analysis
NCI-H460 = assay: Anticancer activity against human NCI-H460 cells assessed as inhibition of cell growth incubated for 48 hrs by crystal violet staining based analysis; assay type: functional; conditions: NCI-H460, 48 h
MCF7 = assay: Anticancer activity against human MCF7 cells assessed as inhibition of cell growth incubated for 48 hrs by crystal violet staining based analysis; assay type: functional; conditions: MCF7, 48 h
T-24 = assay: Anticancer activity against human T24 cells assessed as inhibition of cell growth incubated for 48 hrs by crystal violet staining based analysis; assay type: functional; conditions: T-24, 48 h
SK-OV-3 = assay: Anticancer activity against human SK-OV-3 cells assessed as inhibition of cell growth incubated for 48 hrs by crystal violet staining based analysis; assay type: functional; conditions: SK-OV-3, 48 h
MGC-803 = assay: Anticancer activity against human MGC-803 cells assessed as inhibition of cell growth incubated for 48 hrs by crystal violet staining based analysis; assay type: functional; conditions: MGC-803, 48 h
A549/CDDP = assay: Anticancer activity against human A549/DDP cells assessed as inhibition of cell growth incubated for 48 hrs by crystal violet staining based analysis; assay type: functional
[2] = Octanol-water partition coefficient, logP of the compound; assay type: physicochemical

Serine/threonine-protein kinase PLK1, sequence (P53350 whole entry): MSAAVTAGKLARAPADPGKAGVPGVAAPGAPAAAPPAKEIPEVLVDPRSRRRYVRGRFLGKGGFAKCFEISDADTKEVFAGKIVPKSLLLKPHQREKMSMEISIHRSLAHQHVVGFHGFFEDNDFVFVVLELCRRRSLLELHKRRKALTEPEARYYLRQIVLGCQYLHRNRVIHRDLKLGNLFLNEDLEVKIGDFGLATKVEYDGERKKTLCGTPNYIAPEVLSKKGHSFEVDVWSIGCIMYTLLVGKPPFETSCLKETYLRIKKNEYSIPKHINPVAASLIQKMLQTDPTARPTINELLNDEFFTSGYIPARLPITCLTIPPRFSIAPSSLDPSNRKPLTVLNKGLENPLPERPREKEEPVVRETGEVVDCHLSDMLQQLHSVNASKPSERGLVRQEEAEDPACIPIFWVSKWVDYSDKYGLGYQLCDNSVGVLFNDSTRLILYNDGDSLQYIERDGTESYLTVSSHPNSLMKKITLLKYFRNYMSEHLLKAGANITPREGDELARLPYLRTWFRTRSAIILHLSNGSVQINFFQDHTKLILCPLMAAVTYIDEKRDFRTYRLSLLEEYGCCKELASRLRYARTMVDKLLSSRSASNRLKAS

`Cc1ccc(CNS(=O)(=O)c2ccc3c4c(cccc24)C(=O)N(CCN(C)C)C3=O)cc1` showed a Kd [1] of 14.2 µM, an IC50 (NCI-H460) of 12.5 µM and an IC50 (MCF7) of 10.5 µM. The IC50 (T-24) was 5.89 µM, the IC50 (SK-OV-3) was 6.64 µM and the IC50 (MGC-803) was 7.4 µM.
Compound `CN(C)CCN1C(=O)c2cccc3c(S(=O)(=O)NCc4ccccc4F)ccc(c23)C1=O` has a Kd [1] of 2.79 µM, an IC50 (NCI-H460) of 10.8 µM and an IC50 (MCF7) of 5.38 µM. For the same compound, the IC50 (T-24) was 3.86 µM, the IC50 (SK-OV-3) was 2.95 µM and the IC50 (MGC-803) was 5.46 µM.
For `O=C1c2cccc3c(S(=O)(=O)NCc4ccccc4)ccc(c23)C(=O)N1CCN1CCCCC1`, the Kd [1] was 2.03 µM, the IC50 (NCI-H460) was 8.17 µM and the IC50 (MCF7) was 15.4 µM. It also gave an IC50 (T-24) of 2.75 µM, an IC50 (SK-OV-3) of 12 µM and an IC50 (MGC-803) of 5.16 µM.
`COc1ccc(CNS(=O)(=O)c2ccc3c4c(cccc24)C(=O)N(CCN2CCCCC2)C3=O)cc1` gave a Kd [1] of 20.1 µM, an IC50 (NCI-H460) of 5 µM and an IC50 (MCF7) of 18.2 µM. The IC50 (T-24) was 4.51 µM, the IC50 (SK-OV-3) was 20.5 µM and the IC50 (MGC-803) was 8.1 µM.
In the case of `O=C1c2cccc3c(S(=O)(=O)NCc4ccc(F)cc4)ccc(c23)C(=O)N1CCN1CCCCC1`, the Kd [1] is reported as 3.95 µM, the IC50 (NCI-H460) is reported as 4.28 µM and the IC50 (MCF7) is reported as 9.62 µM. It also gave an IC50 (T-24) of 1.76 µM, an IC50 (SK-OV-3) of 8.53 µM and an IC50 (MGC-803) of 5.43 µM.
Compound `O=C1c2cccc3c(Sc4ccc([N+](=O)[O-])cc4)ccc(c23)C(=O)N1CCN1CCCC1` has a Kd [1] of 15.4 µM, an IC50 (NCI-H460) of 15.6 µM and an IC50 (MCF7) of 10.8 µM. It also gave an IC50 (T-24) of 9.23 µM, an IC50 (SK-OV-3) of 12.2 µM and an IC50 (MGC-803) of 11.2 µM. The IC50 (A549/CDDP) was over 20 µM and the logP [2] was 4.26.
In the case of `Cc1ccc(CNS(=O)(=O)c2ccc3c4c(cccc24)C(=O)N(CCN2CCCC2)C3=O)cc1`, the Kd [1] is reported as 17.3 µM, the IC50 (NCI-H460) is reported as 8.25 µM and the IC50 (MCF7) is reported as 6.75 µM. The IC50 (T-24) was 5.53 µM, the IC50 (SK-OV-3) was 3.98 µM and the IC50 (MGC-803) was 4.17 µM.
Work on `CC[C@@H]1C(=O)N(C)c2cnc(Nc3ccc(C(=O)N[C@H]4CC[C@H](N5CCN(CC6CC6)CC5)CC4)cc3OC)nc2N1C(C)C` [VOLASERTIB] yielded a Kd [1] of 0.9 µM.
Compound `O=C1c2cccc3c(S(=O)(=O)NCc4ccc(C(F)(F)F)cc4)ccc(c23)C(=O)N1CCN1CCCC1` has a Kd [1] of 7.36 µM, an IC50 (NCI-H460) of 4.77 µM and an IC50 (MCF7) of 5.01 µM. For the same compound, the IC50 (T-24) was 4.99 µM, the IC50 (SK-OV-3) was 4.22 µM and the IC50 (MGC-803) was 3.38 µM.
`CN(C)CCN1C(=O)c2cccc3c(S(=O)(=O)NCc4cccc(F)c4)ccc(c23)C1=O` showed a Kd [1] of 17.5 µM, an IC50 (NCI-H460) of 9.77 µM and an IC50 (MCF7) of 7.29 µM. It also gave an IC50 (T-24) of 2.97 µM, an IC50 (SK-OV-3) of 3.11 µM and an IC50 (MGC-803) of 4.98 µM.
Work on `O=C1c2cccc3c(S(=O)(=O)NCc4ccc(C(F)(F)F)cc4)ccc(c23)C(=O)N1CCN1CCCCC1` yielded a Kd [1] of 4.24 µM, an IC50 (NCI-H460) of 4.29 µM and an IC50 (MCF7) of 16.9 µM. For the same compound, the IC50 (T-24) was 8.19 µM, the IC50 (SK-OV-3) was 9.21 µM and the IC50 (MGC-803) was 5.56 µM.
`COc1ccc(CNS(=O)(=O)c2ccc3c4c(cccc24)C(=O)N(CCN2CCCC2)C3=O)cc1` gave a Kd [1] of 16.8 µM, an IC50 (NCI-H460) of 5.37 µM and an IC50 (MCF7) of 10.3 µM. It also gave an IC50 (T-24) of 8.6 µM, an IC50 (SK-OV-3) of 5.19 µM and an IC50 (MGC-803) of 4.04 µM.
Work on `Cc1ccc(CNS(=O)(=O)c2ccc3c4c(cccc24)C(=O)N(CCN2CCCCC2)C3=O)cc1` yielded a Kd [1] of 20.9 µM, an IC50 (NCI-H460) of 4.8 µM and an IC50 (MCF7) of 4.55 µM. The IC50 (T-24) was 9.09 µM, the IC50 (SK-OV-3) was 10.7 µM and the IC50 (MGC-803) was 7.29 µM.
With `CN(C)CCN1C(=O)c2cccc3c(S(=O)(=O)NCc4ccccc4)ccc(c23)C1=O` the Kd [1] was 16.8 µM, the IC50 (NCI-H460) was 11.5 µM and the IC50 (MCF7) was 14.7 µM. The IC50 (T-24) was 7.11 µM, the IC50 (SK-OV-3) was 1.8 µM and the IC50 (MGC-803) was 3.71 µM.
In the case of `O=C1c2cccc3c(S(=O)(=O)NCc4ccccc4)ccc(c23)C(=O)N1CCN1CCCC1`, the Kd [1] is reported as 19.2 µM, the IC50 (NCI-H460) is reported as 17.6 µM and the IC50 (MCF7) is reported as 10.3 µM. It also gave an IC50 (T-24) of 4.07 µM, an IC50 (SK-OV-3) of 7.05 µM and an IC50 (MGC-803) of 4.96 µM.
For `COc1ccc(CNS(=O)(=O)c2ccc3c4c(cccc24)C(=O)N(CCN(C)C)C3=O)cc1`, the Kd [1] was 8.06 µM, the IC50 (NCI-H460) was 9.37 µM and the IC50 (MCF7) was 10.2 µM. For the same compound, the IC50 (T-24) was 5.31 µM, the IC50 (SK-OV-3) was 4.99 µM and the IC50 (MGC-803) was 6.44 µM.
Compound `O=C1c2cccc3c(S(=O)(=O)NCc4ccc(F)cc4)ccc(c23)C(=O)N1CCN1CCCC1` has a Kd [1] of 2.15 µM, an IC50 (NCI-H460) of 2.8 µM and an IC50 (MCF7) of 3.29 µM. It also gave an IC50 (T-24) of 2.51 µM, an IC50 (SK-OV-3) of 4.5 µM and an IC50 (MGC-803) of 3.41 µM.
For `CN(C)CCN1C(=O)c2cccc3c(S(=O)(=O)NCc4ccc(C(F)(F)F)cc4)ccc(c23)C1=O`, the Kd [1] was 5.26 µM, the IC50 (NCI-H460) was 8.28 µM and the IC50 (MCF7) was 6.24 µM. The IC50 (T-24) was 2.57 µM, the IC50 (SK-OV-3) was 7.42 µM and the IC50 (MGC-803) was 5.95 µM.
